# Assay results taken from PMC12290638, “Cubebin, a Lignan Isolated from Drimys andina, Exhibits Potent and Selective Antiparasitic Activity against Angiostrongylus cantonensis” (ACS Omega, 2025).
# Entries after “also recorded” stand apart in the source; their conditions may differ. Like-named read-outs stand apart in the source and are kept apart here.
# Assays:
# [1] = tested on: Angiostrongylus cantonensis first-stage (L1) larvae; test: Antiparasitic assay with A. cantonensis L1 larvae (motility); assay type: cell-based; details: for EC50: Angiostrongylus cantonensis, read-out: A. cantonensis EC50, L1; for selectivity index, L1: SI = CC50 (human HaCaT cells)/EC50 (L1)
# Protocol: (§1) The life cycle of A. cantonensis (NPDN-AC strain) was maintained at the Research Center on Neglected Diseases, Guarulhos University, using either Biomphalaria glabrata (freshwater snails) or Achatina fulica (terrestrial mollusks) as intermediate hosts, and Wistar rats (Rattus norvegicus) as definitive hosts. All animals were maintained under controlled conditions (22 °C, ∼50% humidity) with ad libitum access to food and water.
# First-stage larvae (L1) of A. cantonensis were isolated from the feces of infected Wistar rats using the Rugai sedimentation technique, followed by washing in RPMI 1640 medium containing antibiotics. Approximately 50 larvae were transferred to each well of a 96-well plate. Cubebin and albendazole (positive control) were tested starting at 100 μM using a serial dilution format for EC50 determination. Plates were incubated at 21 °C. Untreated larvae served as negative controls. […] Efficacy was defined as ≥60% of larvae becoming immobile after 24 h.
# (§2) EC50 and CC50 values were calculated from nonlinear sigmoidal dose–response curves using GraphPad Prism version 8.0 (San Diego, CA). Group differences were analyzed using one-way ANOVA followed by Tukey’s post hoc test. A P-value of <0.05 was considered statistically significant.
# [2] = tested on: Caenorhabditis elegans (Bristol N2 strain) L4 larvae; test: Lethal toxicity assay in C. elegans; assay type: in vivo; details: for C. elegans LD50 (lethal concentration 50%): L4 larvae, immobility, 72 h exposure per b20 (method b64: 24 h); for toxicity in C. elegans: cubebin at concentrations up to 1000 μM
# Protocol: The nematode C. elegans (Bristol N2 strain) was maintained on nematode growth medium (NGM) plates seeded with Escherichia coli […].
# Synchronized fourth-stage larvae (L4) of C. elegans were transferred to 96-well plates containing M9 medium, with approximately 60 larvae per well. Cubebin was tested at concentrations starting from 1000 μM. Ivermectin (10 μM) served as the positive control, while 0.5% DMSO was used as the negative control. After 24 h of incubation at 21 °C, larval viability was evaluated based on movement. Toxicity was defined as ≥60% immobility.
# [3] = Cytotoxicity assay (MTT), HaCaT cells; assay type: cell-based, human; details: human, HaCaT cells, MTT, 48 h exposure per figure legend (method: 24 h), read-out: mammalian cells CC50, human
# Protocol: (§3) HaCaT cells (human keratinocytes) were obtained from the Banco de Células do Rio de Janeiro (Duque de Caxias, RJ, Brazil), and Vero cells (monkey kidney epithelial cells) were purchased from the American Type Culture Collection (ATCC CCL-81; Manassas, V). Cells were cultured in DMEM supplemented with 2 mM L-glutamine (Vitrocell), 100 U/mL penicillin, 100 μg/mL streptomycin, and 10% heat-inactivated fetal bovine serum, and maintained at 37 °C in a humidified atmosphere containing 5% CO2.
# (§4) Cytotoxicity was evaluated using the MTT assay as previously described. Briefly, cells were seeded into 96-well plates (Corning) at a density of 2 × 10^3 cells per well and exposed to cubebin. The initial concentration tested was 500 μM, followed by 3-fold serial dilutions. Doxorubicin (15 μM) served as the positive control, while 0.5% DMSO was used as negative control. After 24 h of incubation at 37 °C with 5% CO2, MTT solution (Sigma) was added, and plates were incubated for an additional 4 h. Absorbance was measured at 595 nm using a spectrophotometer (Epoch, BioTek Instruments, Winooski, VT). Cell viability was expressed as a percentage relative to control wells. All assays were performed in triplicate and repeated independently three times.
# as §2
# [4] = tested on: HaCaT cells (human keratinocytes); test: Cytotoxicity assay (MTT), HaCaT cells; assay type: cell-based; details: at concentrations up to 200 μM
# Protocol: as §3, §4, §2
# [5] = tested on: Angiostrongylus cantonensis infective third-stage (L3) larvae; test: Antiparasitic assay with A. cantonensis L3 larvae (motility); assay type: cell-based; details: for EC50: read-out: A. cantonensis EC50, L3; for selectivity index, L3: SI = CC50 (human HaCaT cells)/EC50 (L3)
# Protocol: as §1
# Third-stage larvae (L3) of A. cantonensis were obtained from infected A. fulica via artificial digestion in HCl-pepsin solution, followed by sedimentation using the modified Rugai method. Approximately 50 larvae were added per well in 96-well plates. Cubebin and albendazole were tested starting at 100 μM in a serial dilution format for EC50 estimation. Plates were incubated at 21 °C, and larval viability was assessed at 0 and 24 h using an inverted microscope. […] Efficacy was defined as ≥60% immobility after 24 h.
# as §2
# [6] = Cytotoxicity assay (MTT), Vero cells; assay type: cell-based, monkey; details: monkey, Vero cells, MTT, 48 h exposure per figure legend (method: 24 h), read-out: mammalian cells CC50, monkey
# Protocol: as §3, §4, §2
# [7] = tested on: Vero cells (monkey kidney epithelial cells); test: Cytotoxicity assay (MTT), Vero cells; assay type: cell-based; details: at concentrations up to 200 μM
# Protocol: as §3, §4, §2
# [8] = 24 h, score 1 = immotile to 4 = highly active
SMILES,EC50 ([1]; 24 h),"selectivity index, L1 [1]",C. elegans LD50 (lethal concentration 50%) [2],toxicity in C. elegans [2],CC50 at 48 h [3],cytotoxicity in HaCaT cells [4],"EC50 ([5]; Angiostrongylus cantonensis, 24 h)","selectivity index, L3 [5]",CC50 at 48 h [6],cytotoxicity in Vero cells [7],"larval viability (motility) score, L1 [1, 8]","EC50 ([1]; first-stage (L1) larvae, 24 h, 21 °C, immobility, mean ± SD, three independent experiments)",CC50 at 48 h ([3]; HaCaT cells (human keratinocytes)),"larval viability (motility) score, L3 [5, 8]","EC50 ([5]; Angiostrongylus cantonensis, 24 h, infective third-stage (L3) larvae, 24 h, 21 °C, immobility, mean ± SD, three independent experiments)","EC50 ([5]; infective third-stage (L3) larvae, 24 h, 21 °C, immobility, mean ± SD, three independent experiments)","CC50 at 48 h ([6]; Vero cells (monkey kidney epithelial cells, ATCC CCL-81))"
"CCCSc1ccc2nc(NC(=O)OC)[nH]c2c1 [albendazole, reference compound]",12.8 ± 1.3 µM,>15.6,13.6 ± 1.1 µM,potent toxicity,> 200 µM,no cytotoxicity,12.3 ± 1.9 µM,>16.2,> 200 µM,no cytotoxicity,–,–,–,–,–,–,–
OC1OCC(Cc2ccc3c(c2)OCO3)C1Cc1ccc2c(c1)OCO2 (centres unmarked) [cubebin],–,>42.5,>1000 µM,no observable toxicity; also recorded: nontoxic,–,no cytotoxicity,–,>13.1,–,no cytotoxicity,1,4.7 ± 0.8 µM,> 200 µM,1,15.3 µM,15.2 ± 0.9 µM,> 200 µM
